Measurements taken from patent publication US11091450B2, “Crystal of a caspase inhibitor” (Chia Tai Tianqing Pharmaceutical Group Co., Ltd., priority 2018, dated 2021).
≈ marks a conversion by molar mass, not a printed value.

Assays:
Caspase-1 = target: T1, Caspase-1 (Homo sapiens, UniProt P29466); test: Caspase-1 Inhibitor Screening Kit (BioVision), fluorogenic substrate; assay type: biochemical; conditions: 30 min preincubation at 37° C., substrate 50 μM; read-out: Caspase-1 enzymatic activity (IC50)
T1 construct: purchased BioVision K151-100
T1 sequence (P29466 120-297 limits assumed): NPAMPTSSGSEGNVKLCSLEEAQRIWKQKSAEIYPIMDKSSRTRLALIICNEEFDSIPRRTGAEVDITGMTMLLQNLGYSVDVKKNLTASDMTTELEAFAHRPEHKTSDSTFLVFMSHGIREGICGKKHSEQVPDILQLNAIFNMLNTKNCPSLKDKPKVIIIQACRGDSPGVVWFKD
T1 sequence (P29466 317-404 limits assumed): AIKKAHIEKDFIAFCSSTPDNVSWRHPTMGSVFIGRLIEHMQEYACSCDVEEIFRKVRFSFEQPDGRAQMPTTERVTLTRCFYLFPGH
Procedure: (§1) Caspase Inhibitor Screening Kit for BioVision was used in this experiment to test the inhibitory activity of the test compound on Caspase.
(§2) • 1) Kit: • Caspase-1 Inhibitor Screening Kit (BioVision #K151-100) • Caspase-3 Inhibitor Screening Kit (BioVision #K153-100) • Caspase-8 Inhibitor Screening Kit (BioVision #K158-100) • Wherein, each caspase enzymatic experiment uses the reagents in corresponding kit thereof. Each enzyme was dissolved in 550 μl of the corresponding 2× reaction buffer, sub-packed and stored at −80° C., respectively. • 2) Black 384-well plate (PerkinElmer #6007279) • 3) Instrument: Multi-function microplate reader Molecular Devices (Model: SpectraMax M2e) Experimental Method: • 1) The compound of formula I-A was diluted to a 200* test concentration with DMSO via the multiple dilution, then to a 2* test concentration with ddH2O, and added to a 384-well experimental plate at 12.5 μl per well. […] After the substrate was added, the 384-well experimental plate was incubated at 37° C. for 30 minutes. • 4) The fluorescence intensity (excitation light wavelength was 400 nm, emission light wavelength was 505 nm) was measured by using a multi-function microplate reader. Fluorescence intensity was used to calculate the inhibitory effect of the compounds on Caspase. […]

Caspase-3 = target: T2, Caspase-3 (Homo sapiens, UniProt P42574); test: Caspase-3 Inhibitor Screening Kit (BioVision), fluorogenic substrate; assay type: biochemical; conditions: 30 min preincubation at 37° C., substrate 50 μM; read-out: Caspase-3 enzymatic activity (IC50)
T2 construct: purchased BioVision K153-100
T2 sequence (P42574 29-175 limits assumed): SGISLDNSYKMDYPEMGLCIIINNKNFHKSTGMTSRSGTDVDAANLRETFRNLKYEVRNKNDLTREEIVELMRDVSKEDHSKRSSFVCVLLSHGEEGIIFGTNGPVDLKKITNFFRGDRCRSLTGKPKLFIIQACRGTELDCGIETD
T2 sequence (P42574 176-277 limits assumed): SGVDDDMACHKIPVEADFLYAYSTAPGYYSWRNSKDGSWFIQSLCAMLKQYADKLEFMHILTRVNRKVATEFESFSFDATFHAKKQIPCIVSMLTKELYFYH
Procedure: as §1, §2

Caspase-8 = target: T3, Caspase-8 (Homo sapiens, UniProt Q14790); test: Caspase-8 Inhibitor Screening Kit (BioVision), fluorogenic substrate; assay type: biochemical; conditions: 30 min preincubation at 37° C., substrate 50 μM; read-out: Caspase-8 enzymatic activity (IC50)
T3 construct: purchased BioVision K158-100
T3 sequence (Q14790 217-374 limits assumed): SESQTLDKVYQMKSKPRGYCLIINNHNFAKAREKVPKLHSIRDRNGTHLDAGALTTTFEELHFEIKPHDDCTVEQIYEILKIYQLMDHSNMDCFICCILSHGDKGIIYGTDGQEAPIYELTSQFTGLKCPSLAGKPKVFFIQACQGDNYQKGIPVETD
T3 sequence (Q14790 385-479 limits assumed): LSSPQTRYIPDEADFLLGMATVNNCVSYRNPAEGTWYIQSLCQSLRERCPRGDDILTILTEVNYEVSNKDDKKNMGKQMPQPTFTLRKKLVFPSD
Procedure: as §1, §2

[1] = Solid stability test of crystal IV (temperature, humidity, light; HPLC impurities); assay type: physicochemical
Procedure: 8 mg of crystal IV of the compound of formula I-A was taken, weighed accurately, placed in the sample vial and spread into a thin layer. The samples at day 0 were sealed with the bottle cap and further sealed with the sealing film, followed by storing in the refrigerator at −20° C. The stability of the samples was tested under 60° C., 92.5% RH, 25° C./60% RH, 40° C./75% RH, 60° C./75% RH and light conditions, respectively.
Analysis method: Agilent 1260 High Performance Liquid Chromatography equipped with DAD detector or Waters 2695 High Performance Liquid Chromatography equipped with PDA detector was used; chromatographic column: Waters Xselect CSH C18 (4.6 mm×150 mm, 3.5 μm), column temperature: 40° C., flow rate: 1.0 ml/min, detection wavelength: 215 nm, injection volume: 10 μL, sample concentration: 0.5 mg/mL, diluent: methanol, and the gradient of mobile phases in Table 9 was used for analysis.

[2] = Solubility test of crystal IV in different pH medium solutions; assay type: physicochemical; conditions: thermodynamic from solid, 37° C.
Procedure: 2 ml of pH medium solutions were transferred into 4 ml glass bottle respectively, and then 8 mg of crystal IV of the compound of formula I-A was added thereto. It was stirred and heated on a magnetic stirrer, and the temperature was kept at 37° C. After 4 hours and 24 hours, 1 mL of sample was taken and centrifuged rapidly, respectively. The pH value of the supernatant was determined, and the supernatant was diluted with diluent. The concentration was determined by HPLC.

[3] = aqueous buffer, pH = 4.5 Buffer, supernatant pH 4.67
[4] = aqueous buffer, pH = 5.5 Buffer, supernatant pH 5.55
[5] = aqueous buffer, pH = 6.0 Buffer, supernatant pH 6.04

`C[C@H](NC(=O)c1cc(-c2ccccc2Cl)on1)C(=O)N[C@@H](CC(=O)O)C(=O)COc1c(F)c(F)cc(F)c1F` [Compound of formula I-A, (S)-3-((S)-2-(5-(2-chlorophenyl)isoxazol-3-carboxamido)propionamido)-4-oxo-5-(2,3,5,6-tetrafluorophenoxy)pentanoic acid] gave an IC50 (Caspase-1) of 4.6 nM, an IC50 (Caspase-3) of 13 nM and an IC50 (Caspase-8) of 10.3 nM.
For `C[C@H](NC(=O)c1cc(-c2ccccc2Cl)on1)C(=O)N[C@@H](CC(=O)O)C(=O)COc1c(F)c(F)cc(F)c1F` [crystal IV, (S)-3-((S)-2-(5-(2-chlorophenyl)isoxazol-3-carboxamido)propionamido)-4-oxo-5-(2,3,5,6-tetrafluorophenoxy)pentanoic acid], the Appearance ([1]; 25° C./60% RH, 10 days) was “White solid powder”, the “Total Impurities (%)” value ([1]; 25° C./60% RH, 10 days) was 0.20% and the Property ([1]; 25° C./92.5% Relative Humidity (Exposure)) was “White solid”. For the same compound, the Appearance ([1]; 40° C./75% RH, 10 days) was “White solid powder”, the “Total Impurities (%)” value ([1]; 40° C./75% RH, 10 days) was 0.19% and the Property ([1]; 60° C. (Exposure)) was “White solid”. The Appearance ([1]; 60° C./75% RH, 10 days) was “White solid powder”, the “Total Impurities (%)” value ([1]; 60° C./75% RH, 10 days) was 0.48% and the Property ([1]; Light) was “White solid”. The Crystal ([1]; crystal form after 25° C./60% RH, 10 days) was “Crystal IV”, the Crystal ([1]; crystal form after 25° C./92.5% Relative Humidity (Exposure)) was “Crystal IV” and the Crystal ([1]; crystal form after 40° C./75% RH, 10 days) was “Crystal IV”. The Crystal ([1]; crystal form after 60° C. (Exposure)) was “Crystal IV”, the Crystal ([1]; crystal form after 60° C./75% RH, 10 days) was “Crystal IV” and the Crystal ([1]; crystal form after Light) was “Crystal IV”. For the same compound, the total impurities produced ([1]; high temperature and high humidity conditions (summary of Table 10)) was at most 0.5%, the “stability under high temperature and high humidity conditions” value ([1]; summary of Table 10) was “stable” and the hygroscopicity ([1]; summary of Table 11) was “low hygroscopicity”. For the same compound, the “stability under high temperature and light conditions” value ([1]; summary of Table 11) was “good stability”, the solubility at 4 h ([2]; 0.01 N HCl buffer, simulated gastric fluid, 0.01N of HCl Buffer, supernatant pH 2.01) was 5 µg/mL (≈ 8.74 µM) and the solubility at 24 h ([2]; 0.01 N HCl buffer, simulated gastric fluid, 0.01N of HCl Buffer, supernatant pH 2.07) was 6 µg/mL (≈ 10.5 µM). The solubility at 4 h ([2]; 0.1 N HCl buffer, simulated gastric fluid, 0.1N of HCl Buffer, supernatant pH 1.07) was 5 µg/mL (≈ 8.74 µM), the solubility at 24 h ([2]; 0.1 N HCl buffer, simulated gastric fluid, 0.1N of HCl Buffer, supernatant pH 1.11) was 6 µg/mL (≈ 10.5 µM) and the solubility at 4 h ([2]; aqueous buffer, pH = 3.8 Buffer, supernatant pH 3.97) was 7 µg/mL (≈ 12.2 µM). It also gave a solubility at 24 h ([2]; aqueous buffer, pH = 3.8 Buffer, supernatant pH 3.99) of 8 µg/mL (≈ 14 µM), a solubility at 4 h [2, 3] of 16 µg/mL (≈ 28 µM) and a solubility at 24 h [2, 3] of 16 µg/mL (≈ 28 µM). The solubility at 4 h [2, 4] was 268 µg/mL (≈ 469 µM), the solubility at 24 h [2, 4] was 254 µg/mL (≈ 444 µM) and the solubility at 4 h [2, 5] was 372 µg/mL (≈ 651 µM). For the same compound, the solubility at 24 h [2, 5] was 340 µg/mL (≈ 595 µM), the solubility at 4 h ([2]; aqueous buffer, pH = 6.8 Buffer, supernatant pH 6.71) was 775 µg/mL (≈ 1360 µM) and the solubility at 4 h ([2]; aqueous buffer, pH = 7.4 Buffer, supernatant pH 7.28) was 1700 µg/mL (≈ 2970 µM). The solubility at 24 h ([2]; aqueous buffer, pH = 7.4 Buffer, supernatant pH 7.24) was 1620 µg/mL (≈ 2830 µM), the solubility at 24 h ([2]; pH 6.7, aqueous buffer, pH = 6.8 Buffer, supernatant pH 6.70) was 702 µg/mL (≈ 1230 µM) and the solubility at 4 h ([2]; Water, supernatant pH 7.83) was 339 µg/mL (≈ 593 µM). For the same compound, the solubility at 24 h ([2]; Water, supernatant pH 7.34) was 266 µg/mL (≈ 465 µM).
